Results on two substances are retold here after US20240366565A1, “Use of Verteporfin to Modulate Wound Healing After an Ocular Surgical Procedure or Ocular Injury” (The Board of Trustees of the Leland Stanford Junior …, priority 2021, published 2024).

Data set [1] concerns α-smooth muscle actin (α-SMA, ACTA-2) expression in hMSCs. Briefly: qPCR of α-smooth muscle actin expression in TGFB-1 treated hMSCs. Format: cell-based, human. The protocol: FIG. 1. Verteporfin reduces expression of α-smooth muscle actin in hMSCs. Human mesenchymal stem cells (hMSCs) were plated in culture. The next day, the following treatments were added in duplicate: 1 μg/mL Verteporfin, 10 μg/mL Verteporfin, 10 ng/ml transforming growth factor beta-1 (TGFB-1), 1 μg/mL Verteporfin+10 ng/mL TGFB-1, 10 μg/mL Verteporfin+10 ng/ml TGFB-1, Dimethyl sulfoxide (DMSO), and cells without treatment. After 24 hours, the medium was removed, the wells were washed with PBS and then the RNA of the cells were extracted using Trizol and a Quiagen kit. Quantitative polymerase chain reaction (qPCR) was performed. TGFB-1 activation leads to the differentiation of mesenchymal stem cells into myofibroblasts, inducing expression of α-smooth muscle actin (α-SMA) and the extracellular matrix proteins such as collagen which may lead to scarring.
Human mesenchymal stem cells (hMSCs) were plated in culture. The next day, the following treatments were added in duplicate: 1 μg/mL Verteporfin, 10 μg/mL Verteporfin, 10 ng/ml transforming growth factor beta-1 (TGFB-1), 1 μg/mL Verteporfin+10 ng/ml TGFB-1, 10 μg/mL Verteporfin+10 ng/ml TGFB-1, Dimethyl sulfoxide (DMSO), and cells without treatment. […] Quantitative polymerase chain reaction (qPCR) was performed.
(In general: Quantitative PCR measures a nucleic acid by following its amplification.)

For data set [2], the system named is skin wounds. Particulars: cited from earlier work.
Data set [3] has as its system bleb survival after glaucoma filtration surgery. Briefly: Rabbit model of glaucoma filtration surgery. The format is in vivo, New Zealand White rabbits. Particulars: subconjunctival injection into the bleb after surgery, various concentrations, versus BSS control eye. The method, then:
FIGS. 5A-5B. Efficacy of verteporfin in reducing scarring and increasing bleb survival. The efficacy of verteporfin in reducing scarring and increasing bleb survival was evaluated in a rabbit model of glaucoma filtration surgery. Glaucoma filtration surgery was performed in both eyes of New Zealand White rabbits. In one eye, various concentrations of verteporfin or Mitomycin C was injected subconjunctivally into the bleb after surgery. In the contralateral eye, BSS was injected after surgery as a control. Bleb appearance and survival were evaluated postoperatively at least twice a week. Bleb survival was the primary endpoint. […] There were no post-surgical complications in all groups, including corneal edema, bleb leak, anterior chamber inflammation, iris involvement, cataract or infection (FIG. 5B).
The efficacy of verteporfin in reducing scarring and increasing bleb survival was evaluated in a rabbit model of glaucoma filtration surgery. Glaucoma filtration surgery was performed in both eyes of New Zealand White rabbits. In one eye, various concentrations of verteporfin or Mitomycin C was injected subconjunctivally into the bleb after surgery. In the contralateral eye, BSS was injected after surgery as a control. Bleb appearance and survival were evaluated postoperatively at least twice a week. Bleb survival was the primary endpoint.

The subject of data set [4] is corneal scarring after anterior lamellar keratectomy. Briefly: Rat model of corneal injury (anterior lamellar keratectomy). Format: in vivo. Particulars: ALK cut depth around 50%, 10 μg/mL in Provisc gel subconjunctivally on Day 0, read at day 3, versus untreated eyes. The method, then: FIG. 6. Efficacy of verteporfin in reducing corneal scarring. Anterior lamellar keratectomy (ALK) with a cut depth of around 50% was performed in a rat model of corneal injury. 10 μg/mL verteporfin (in Provisc gel) was subconjunctivally injected after ALK on Day 0.
Anterior lamellar keratectomy (ALK) with a cut depth of around 50% was performed in a rat model of corneal injury. 10 μg/mL verteporfin (in Provisc gel) was subconjunctivally injected after ALK on Day 0.

The subject of data set [5] is hMSCs. As to the kind of experiment: Live/dead cytotoxicity test in hMSCs. The format is cell-based, human. Particulars: 1 μg/mL and 10 μg/mL, 24 hours. The protocol: FIG. 4. Verteporfin is not cytotoxic to hMSCs. The hMSCs were treated with verteporfin at concentrations of 1 μg/mL and 10 μg/mL for 24 hours. Cells were treated with 10% DMSO for 40 minutes. The next day, the live/dead solution was added to the cells.
The hMSCs were treated with verteporfin at concentrations of 1 μg/mL and 10 μg/mL for 24 hours. Cells were treated with 10% DMSO for 40 minutes. The next day, the live/dead solution was added to the cells.

Data set [6] deals with ki67 (Mki67) expression in hMSCs. Briefly: qPCR of ki67 expression in hMSCs. Format: cell-based, human. Particulars: Verteporfin 1 μg/mL and 10 μg/mL, 24 hours. The protocol: FIG. 3. […] The hMSCs were cultured on plates. The next day, the treatments were added in duplicate: Verteporfin 1 μg/mL, Verteporfin 10 μg/mL, DMSO, and cells without treatment. After 24 hours, the medium was removed, the wells were washed with PBS and then the RNA of the cells were extracted using Trizol and Quiagen kit. qPCR was performed.
The hMSCs were cultured on plates. The next day, the treatments were added in duplicate: Verteporfin 1 μg/mL, Verteporfin 10 μg/mL, DMSO, and cells without treatment. After 24 hours, the medium was removed, the wells were washed with PBS and then the RNA of the cells were extracted using Trizol and Quiagen kit. qPCR was performed.

Data set [7] relates to alpha smooth muscle actin (ASMA) in hMSCs. As to the kind of experiment: Immunostaining of alpha smooth muscle actin in hMSCs. Format: cell-based, human. Particulars: 10 ng/ml TGFB-1 with or without verteporfin, 24 hours. The method, then: FIG. 2. Results of immunostaining alpha smooth muscle actin in hMSCs. The hMSCs, were treated with 10 ng/ml TGFB-1 with or without verteporfin and DMSO for 24 hours. The next day, the cells were fixed and stained for alpha smooth muscle actin (ASMA).
The hMSCs, treated with 10 ng/ml TGFB-1 with or without verteporfin and DMSO for 24 hours, were fixed and stained for alpha smooth muscle actin (ASMA) the next day.

For “transforming growth factor beta-1 [TGFB-1]”, the “expression of alpha-SMA (ACTA-2) (qPCR)” value in data set [1] (10 ng/ml TGFB-1 alone, after 24 hours) is reported as “statistically increased the expression of alpha-SMA”.

As to Verteporfin, the “scar formation in skin wounds” value in data set [2] (mice, injection into skin wounds) is “prevented scar formation”. For the same substance, the “side effects on dosing in the skin” value in data set [2] (previous animal studies) was “minimal side effects”. For the same substance, in data set [3], the bleb survival result is recorded as “trend towards increased survival”. Besides, in data set [4], the corneal scarring entry is reported as “reduced corneal scarring”. Further, the “cytotoxicity (live/dead)” value in data set [5] is on record as “not cytotoxic”. In addition, in data set [6], the “expression of ki67 (Mki67), marker of cell proliferation (qPCR)” value is given as “did not increase the expression of ki67”. The “expression of alpha-SMA (qPCR)” value in data set [1] (10 ng/ml TGFB-1 + 1 or 10 μg/mL Verteporfin, 24 hours) is “statistically reduced the expression of alpha-SMA in a dose dependent manner”. For the same substance, the “expression of ASMA (immunostaining)” value in data set [7] is “reduces the expression of ASMA”.
